Columns and labels:
Test in all cases: relative viability (nuclei count vs DMSO), 5 days (fraction); higher = more cells survive
[1] = compound: C/C(=N\NC(=S)N1CCC1)/C2=CC=CC=N2 + CC(C)C[C@H](NC(=O)[C@H](Cc1ccccc1)NC(=O)c1cnccn1)B(O)O [Bortezomib] (partner 0.002 µM)
How it was run: (§1)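 Lung cancer cell lines were seeded in 1536-well plates and dosed by pin tool the next day, with either a single drug or a fixed anchor-drug dose combined with five library-drug doses (not always all listed) spaced in √10 steps. Five days later, one step fixed the cells and stained their nuclei (final 0.05% Triton X-100, 1% formaldehyde, 1 ug/ml Hoechst), and nuclei were counted on 4× images. Relative viability is the nuclei count in treated wells divided by the count in vehicle wells, and each value is the median of duplicate plates.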

[2] = compound: C/C(=N\NC(=S)N1CCC1)/C2=CC=CC=N2 + Cc1nc(Nc2ncc(C(=O)Nc3c(C)cccc3Cl)s2)cc(N2CCN(CCO)CC2)n1 [Dasatinib] (partner 0.075 µM)
How it was run: as §1

[3] = compound: C/C(=N\NC(=S)N1CCC1)/C2=CC=CC=N2 + CCNC(=O)c1noc(-c2cc(C(C)C)c(O)cc2O)c1-c1ccc(CN2CCOCC2)cc1 [Luminespib] (partner 0.01 µM)
How it was run: as §1

[4] = compound: C/C(=N\NC(=S)N1CCC1)/C2=CC=CC=N2 + CC(=O)c1c(C)c2cnc(Nc3ccc(N4CCNCC4)cn3)nc2n(C2CCCC2)c1=O [Palbociclib] (partner 0.5 µM)
How it was run: as §1

Cell Line | relative viability ([1]; first compound 0.05 µM) | relative viability ([1]; first compound 0.1581 µM) | relative viability ([1]; first compound 0.5 µM) | relative viability ([1]; first compound 1.581 µM) | relative viability ([1]; first compound 5 µM) | relative viability ([2]; first compound 0.05 µM) | relative viability ([2]; first compound 0.1581 µM) | relative viability ([2]; first compound 0.5 µM) | relative viability ([2]; first compound 1.581 µM) | relative viability ([2]; first compound 5 µM) | relative viability ([3]; first compound 0.05 µM) | relative viability ([3]; first compound 0.1581 µM) | relative viability ([3]; first compound 0.5 µM) | relative viability ([3]; first compound 1.581 µM) | relative viability ([3]; first compound 5 µM) | relative viability ([4]; first compound 0.05 µM) | relative viability ([4]; first compound 0.1581 µM) | relative viability ([4]; first compound 0.5 µM) | relative viability ([4]; first compound 1.581 µM) | relative viability ([4]; first compound 5 µM)
NCI-H2126 | 0.364 | 0.244 | 0.223 | 0.201 | 0.186 | 0.185 | 0.18 | 0.179 | 0.163 | 0.187 | 0.201 | 0.201 | 0.198 | 0.178 | 0.225 | 0.249 | 0.34 | 0.212 | 0.207 | 0.209
LXF-289 | 0.314 | 0.216 | 0.255 | 0.203 | 0.121 | 0.0597 | 0.064 | 0.0627 | 0.0541 | 0.0561 | 0.169 | 0.132 | 0.177 | 0.153 | 0.126 | 0.252 | 0.6 | 0.189 | 0.143 | 0.13
NCI-H460 | 0.0169 | 0.0164 | 0.0256 | 0.0129 | 0.0105 | 0.0259 | 0.0347 | 0.0269 | 0.0294 | 0.0151 | 0.0193 | 0.0163 | 0.025 | 0.0173 | 0.0171 | 0.018 | 0.0146 | 0.0188 | 0.0169 | 0.0139
NCI-H2009 | 0.117 | 0.126 | 0.138 | 0.122 | 0.0916 | 0.112 | 0.143 | 0.145 | 0.122 | 0.103 | 0.128 | 0.146 | 0.15 | 0.186 | 0.127 | 0.0949 | 0.102 | 0.108 | 0.112 | 0.0775

Source: the supplement of paper PMC10307832
